Measured values taken from patent publication US20200352950A1, “Novel method of treating dystonia” (KOREA ADVANCED INSTITUTE OF SCIENCE AND TECHNOLOGY, priority 2017, published 2020).
Entries after “also recorded” stand apart in the source; their conditions may differ.

Assays:
[1] = target: 5-HT2A receptor (Homo sapiens, UniProt P28223); conditions: cited from earlier work
[2] = test system: CACNA1Atot/tot mice (tottering mice); experiment: Stress-induced dystonia in tottering mice in open field box (attack event number, dystonia score); type: in vivo; conditions: for degree of relaxation of dystonia (number of dystonia events, dystonia score): FIGS. 3B, 3C, i.p., MDL100907 1 or 2 mg/kg, pimavanserin 1.5 mg/kg, ritanserin 2 mg/kg, glemanserin 2 mg/kg, nelotanserin 1 mg/kg, compared to the control group; for dystonia symptoms, dose-dependent effect: FIG. 3A
[3] = test system: CACNA1Atot/tot mice (tottering mice); experiment: EMG cross correlation between tibialis anterior and gastrocnemius muscles of tottering mice; type: in vivo; conditions: FIG. 1G; stressed environment; compared to control group
Description: Electrodes (A-M system, USA) were surgically inserted into the gastrocnemius (GS) and tibialis anterior (TA) muscle for EMG recording, respectively. The electrodes were made using multiple strands of stainless-steel wires attached to each other and coated with Teflon. After shaving the hair of the right hind leg and behind the neck, a small incision was formed in the skin of the dorsal neck area. Four sets of recording electrodes were connected from the neck incision to the muscles under the skin. The EMG wires were wired under the skin and connected to a connector fixed to the skull. The low impedance of the exposed end of the wires allows the capture of electrical signals that have passed through relatively long distances (Pearson et al., J. Neurosci. Methods, 148 (1): 36-42, 2005). The EMG signals from the electrodes were sampled at 10 kHz and digitized with MiniDigi 1A (Axon Instrument, USA). Raw traces were analyzed using Clampfit 9.2 (Axon Instrument, USA). The cross correlation was calculated by using the standard of NeuroExplorer (Ver. 4, Nex Technologies, USA). […] The cross correlation indicates the degree of EMG overlap for a certain period in two muscles (TA and GS), and is a measure for judging whether the dystonia symptoms occur simultaneously in two muscles. […] That is, the greater the cross correlation value (Cross Corr.), which is the Y-axis value when the signal between each other is 0 ms (when contracted at the same time), the more severe the dystonia symptoms that the two muscles contract at the same time. The unit of the Y axis, AU, is a relative cross correlation value when the control is set to 1 which is an arbitrary unit.

[4] = test system: calcium ion concentration in the cerebellum; experiment: Real-time GCaMP6 fluorescence measurement of calcium ion concentration in the cerebellum of tottering mice; type: in vivo; conditions: FIG. 4E; stress environment
Protocol: In order to analyze the correlation between the degree of dystonia symptoms and the concentration of calcium ions in neurons, optogenetic model animals were prepared. Particularly, for a photometric system with a polarization-maintaining single-mode optical fiber, AAV2/9-CAG-FLEX-GCaMP6m (zadmehr et al., Cell, 164: 617-631, 2016) and AAV2/9-CMV-Cre (Gompf et al., Front. Behav. Neurosci. 9: 152, 2015) viral vectors were injected unilaterally into 0.25 μl each of the fastigial nucleus of the CACNA1A^tot/tot mouse through stereotaxic surgery. The virus injection was carried out 4 weeks before the experiment. […] For the fluorescence measurement, a TCSPC-based light measurement system (Becker & Hickel, Germany) was used.
The change in calcium signaling in the cerebellum is possible by transduction of a gene encoding the calcium sensor protein GCaMP6 into the cerebellum of the dystonia model mouse, and then measuring the intensity of fluorescence of the GCaMP6 protein bound to calcium ions. […] The present inventors performed real-time fluorescence analysis to analyze the correlation between dystonia symptoms and calcium ion concentration in nerve tissues in the topical transduction tottering mice prepared in Example 2. […] After the pulse laser irradiation, 509 nm wavelength fluorescence was measured using a TCSPC-based optical measurement system (Becker & Hickl, Germany). […]

[5] = test system: CACNA1Atot/tot mice (tottering mice); experiment: Stress-induced dystonia in tottering mice in open field box (attack event number, dystonia score); type: in vivo; conditions: FIG. 1F; i.p. 30 min before test; Way100135 10 mg/kg, MDL100907 1 mg/kg, ondansetron 1 mg/kg; open field box 30 min
Protocol: The 7-8 weeks old CACNA1Atot/tot mice (Fletcher, Cell, 87 (4): 607-617, 1996, The Jackson Laboratory, Stock No: 000544) were selected kept and dealt complied with the regulation (protocol number KA2015-05) of Institutional Animal Care and Use Committee of the Korea Advanced Institute of Science and Technology (KAIST). The mice remained freely accessible to water and feed, and the light-dark cycle was 12/12 hours. Behavioral tests were performed 4 weeks after the viral transduction. […]
The drugs were dissolved in physiological saline and administrated […] to the tottering animal prepared by the Examples 2 and kept in the controlled environment of 12/12 hour light-dark cycle. […] The behavior test was performed 30 minutes after drug administration, and the experimental animals were acclimated in the home for 30 minutes and moved to an open field box, they were exposed to a stressed environment by leaving them in the open field box for 30 min, and the symptoms of dystonia were measured. The symptoms of dystonia and its severity were calculated using a 5-point scale dystonia score as follows: 0=normal behavior, 1=abnormal motor behavior, no myotonic posture, 2=minor dyskinesia, showing dystonia-like psture when disturbed, 3=moderate motor disability, frequent spontaneous myotonic posture, 4=severe motor disability, and persistent myotonic posture.

5-HT2A receptor, sequence (P28223 whole entry): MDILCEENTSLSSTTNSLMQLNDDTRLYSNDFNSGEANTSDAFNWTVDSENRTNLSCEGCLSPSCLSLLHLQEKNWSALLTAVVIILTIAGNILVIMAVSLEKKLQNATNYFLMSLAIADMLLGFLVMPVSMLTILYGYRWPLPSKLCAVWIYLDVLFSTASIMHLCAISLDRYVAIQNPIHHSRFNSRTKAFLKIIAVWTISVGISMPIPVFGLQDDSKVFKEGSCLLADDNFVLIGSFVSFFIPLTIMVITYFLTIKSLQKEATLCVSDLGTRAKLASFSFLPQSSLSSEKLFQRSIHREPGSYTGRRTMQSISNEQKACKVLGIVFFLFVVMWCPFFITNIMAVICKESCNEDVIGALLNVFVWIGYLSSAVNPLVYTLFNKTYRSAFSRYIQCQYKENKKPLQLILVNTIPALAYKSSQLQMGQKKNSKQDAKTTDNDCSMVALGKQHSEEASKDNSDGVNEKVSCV

SMILES | Ki ([1]; 5-HT2A receptor) [nM] | degree of relaxation of dystonia (number of dystonia events, dystonia score) [2] | EMG cross correlation (TA and GS muscles) [3] | further results
COc1ccc(CC(=O)N(Cc2ccc(C)cc2)C2CCN(C)CC2)cc1 [AC-90179] | 2.1 ± 0.2 |  |  | 
OC(c1ccccc1)C1CCN(CCc2ccccc2)CC1 (stereo not shown) [Glemanserin] |  | showed no significant effect |  | IC50 [1]: 6.5 ± 2 nM
OCCOCCN1CCN(C(c2ccccc2)c2ccc(Cl)cc2)CC1 (stereo not shown) [Hydroxyzine] |  |  |  | IC50 [1]: 170 nM
COc1ccc(NC(=O)Nc2ccc(F)cc2F)cc1-c1c(Br)cnn1C [Nelotanserin] | 0.4 ± 0.07 | showed no dystonia paralysis |  | 
CC(CCN1CCN(c2ccc(F)cc2)CC1)NC(=O)c1cccnc1 (stereo not shown) [Niaprazine] | 75 |  |  | pKi ([1]; 5-HT2A receptor): 7.61 ± 0.18
CC(C)COc1ccc(CNC(=O)N(Cc2ccc(F)cc2)C2CCN(C)CC2)cc1 [Pimavanserin] |  | showed no dystonia paralysis; also recorded: reduced symptoms of dystonia compared to Glemanserin |  | 
Cc1nc2sccn2c(=O)c1CCN1CCC(=C(c2ccc(F)cc2)c2ccc(F)cc2)CC1 [Ritanserin] |  | showed no dystonia paralysis |  | 
COc1cccc([C@H](O)C2CCN(CCc3ccc(F)cc3)CC2)c1OC [Volinanserin] |  | showed no dystonia paralysis; also recorded: reduced symptoms of dystonia compared to Glemanserin | the correlation disappeared | dystonia symptoms, dose-dependent effect ([2]; 0.1 mg/kg): dystonia symptoms were significantly suppressed; dystonia symptoms, dose-dependent effect ([2]; 2 mg/kg rather than 1 mg/kg): symptoms were slightly alleviated; increase in GCaMP6 fluorescence signal (ΔF/F) in cerebellum after moving to open field box [4]: reduced to the level when staying at the home
COc1ccccc1N1CCN(CC(C(=O)NC(C)(C)C)c2ccccc2)CC1 (stereo not shown) [Way100135] |  |  | there is no difference | symptoms of dystonia (attack event number and muscle dysfunction index) [5]: did not reduce symptoms of dystonia at all
Cc1nccn1CC1CCc2c(c3ccccc3n2C)C1=O (stereo not shown) [ondansetron] |  |  | there is no difference | symptoms of dystonia (attack event number and muscle dysfunction index) [5]: did not reduce symptoms of dystonia at all
